# Reference: ChEMBL document CHEMBL1201862, “PubChem BioAssay data set” (2004)
#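 These data come from cells grown in 96-well plates and exposed to compound for 48 hours at five concentrations. GI50 = concentration required for 50% inhibition of growth.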 Activity calls are given as the source filed them. Cut-off read from the data, not from the text of the source: active = GI50 up to about 1.1 µM and inactive = higher.
# What was measured:
# Assay in all cases: inhibition of tumour cell growth, NCI panel, 48 h
# XF498 = test system: XF498
# M19-MEL = test system: M19-MEL
# LOX IMVI = test system: LOX IMVI
# RXF 393 = test system: RXF 393
# SN12C = test system: SN12C
# UACC-62 = test system: UACC-62
# SR = test system: SR
# NCI-H522 = test system: NCI-H522
# NCI-H460 = test system: NCI-H460
# UACC-257 = test system: UACC-257
# UO-31 = test system: UO-31
# KM12 = test system: KM12
# OVCAR-3 = test system: OVCAR-3
# SK-OV-3 = test system: SK-OV-3
# HT-29 = test system: HT-29
# SNB-75 = test system: SNB-75
# SF-268 = test system: SF-268
# OVCAR-4 = test system: OVCAR-4
# HOP-62 = test system: HOP-62
# SK-MEL-28 = test system: SK-MEL-28
# EKVX = test system: EKVX
# NCI-H23 = test system: NCI-H23
# Malme-3M = test system: Malme-3M
# SF-539 = test system: SF-539
# U-251 = test system: U-251
# M14 = test system: M14
# HCC 2998 = test system: HCC 2998
# SNB-78 = test system: SNB-78
# SK-MEL-2 = test system: SK-MEL-2
# DLD-1 = test system: DLD-1
# ACHN = test system: ACHN
# HCT-15 = test system: HCT-15
# A498 = test system: A498
# SNB-19 = test system: SNB-19
# DMS-114 = test system: DMS-114
# LXFL 529 = test system: LXFL 529
# HCT-116 = test system: HCT-116
# HL-60 = test system: HL-60
# RXF 631 = test system: RXF 631
# CCRF-CEM = test system: CCRF-CEM
# K562 = test system: K562
# OVCAR-5 = test system: OVCAR-5
# TK-10 = test system: TK-10
# MOLT-4 = test system: MOLT-4
# SW-620 = test system: SW-620
# A549 = test system: A549
# 786-0 = test system: 786-0
# HOP-92 = test system: HOP-92
# COLO 205 = test system: COLO 205
# Hs-578T = test system: Hs-578T
# NCI/ADR-RES = test system: NCI/ADR-RES
# MDA-MB-435 = test system: MDA-MB-435
# SF-295 = test system: SF-295
# CAKI-1 = test system: CAKI-1
# KM-20L2 = test system: KM-20L2
# T47D = test system: T47D
# MDA-MB-231 = test system: MDA-MB-231
# IGROV-1 = test system: IGROV-1
# BT-549 = test system: BT-549
# DU-145 = test system: DU-145
# NCI-H226 = test system: NCI-H226
# MCF7 = test system: MCF7
# RPMI-8226 = test system: RPMI-8226
# SK-MEL-5 = test system: SK-MEL-5
# PC-3 = test system: PC-3
# MDA-N = test system: MDA-N
# HOP-18 = test system: HOP-18
# OVCAR-8 = test system: OVCAR-8
# DMS-273 = test system: DMS-273
smiles,measurement,setting,value
Cc1cccc(NC(N)=S)c1,GI50,XF498,> 100 µM (inactive)
same,GI50,M19-MEL,> 100 µM (inactive)
same,GI50,LOX IMVI,> 100 µM (inactive)
same,GI50,RXF 393,> 100 µM (inactive)
same,GI50,SN12C,> 100 µM (inactive)
same,GI50,UACC-62,> 100 µM (inactive)
same,GI50,SR,> 100 µM (inactive)
same,GI50,NCI-H522,> 100 µM (inactive)
same,GI50,NCI-H460,> 100 µM (inactive)
same,GI50,UACC-257,> 100 µM (inactive)
same,GI50,UO-31,> 100 µM (inactive)
same,GI50,KM12,> 100 µM (inactive)
same,GI50,OVCAR-3,> 100 µM (inactive)
same,GI50,SK-OV-3,> 100 µM (inactive)
same,GI50,HT-29,> 100 µM (inactive)
same,GI50,SNB-75,> 100 µM (inactive)
same,GI50,SF-268,> 100 µM (inactive)
same,GI50,OVCAR-4,> 100 µM (inactive)
same,GI50,HOP-62,> 100 µM (inactive)
same,GI50,SK-MEL-28,> 100 µM (inactive)
same,GI50,EKVX,> 100 µM (inactive)
same,GI50,NCI-H23,> 100 µM (inactive)
same,GI50,Malme-3M,> 100 µM (inactive)
same,GI50,SF-539,> 100 µM (inactive)
same,GI50,U-251,> 100 µM (inactive)
same,GI50,M14,> 100 µM (inactive)
same,GI50,HCC 2998,> 100 µM (inactive)
same,GI50,SNB-78,> 100 µM (inactive)
same,GI50,SK-MEL-2,> 100 µM (inactive)
same,GI50,DLD-1,> 100 µM (inactive)
same,GI50,ACHN,> 100 µM (inactive)
same,GI50,HCT-15,> 100 µM
same,GI50,A498,> 100 µM (inactive)
same,GI50,SNB-19,> 100 µM (inactive)
same,GI50,DMS-114,> 100 µM (inactive)
same,GI50,LXFL 529,> 100 µM (inactive)
same,GI50,HCT-116,> 100 µM (inactive)
same,GI50,HL-60,> 100 µM (inactive)
same,GI50,RXF 631,> 100 µM (inactive)
same,GI50,CCRF-CEM,> 100 µM (inactive)
same,GI50,K562,> 100 µM (inactive)
same,GI50,OVCAR-5,> 100 µM (inactive)
same,GI50,TK-10,> 100 µM (inactive)
same,GI50,MOLT-4,> 100 µM (inactive)
CN(N=O)C(=O)N[C@H]1C(O)O[C@H](CO)[C@@H](O)[C@@H]1O (stereo partly specified),GI50,XF498,557 µM (inactive)
same,GI50,SW-620,511 µM (inactive)
same,GI50,A549,571 µM (inactive)
same,GI50,M19-MEL,475 µM (inactive)
same,GI50,786-0,309 µM (inactive)
same,GI50,HOP-92,548 µM (inactive)
same,GI50,COLO 205,596 µM (inactive)
same,GI50,Hs-578T,> 750 µM (inactive)
same,GI50,NCI/ADR-RES,740 µM (inactive)
same,GI50,RXF 393,600 µM (inactive)
same,GI50,MDA-MB-435,515 µM (inactive)
same,GI50,SN12C,581 µM (inactive)
same,GI50,UACC-62,550 µM (inactive)
same,GI50,SR,537 µM (inactive)
same,GI50,SF-295,589 µM (inactive)
same,GI50,NCI-H522,578 µM (inactive)
same,GI50,NCI-H460,491 µM (inactive)
same,GI50,CAKI-1,429 µM (inactive)
same,GI50,UACC-257,600 µM (inactive)
same,GI50,UO-31,658 µM (inactive)
same,GI50,KM-20L2,> 750 µM (inactive)
same,GI50,KM12,625 µM (inactive)
same,GI50,OVCAR-3,653 µM (inactive)
same,GI50,T47D,611 µM (inactive)
same,GI50,SK-OV-3,571 µM (inactive)
same,GI50,MDA-MB-231,> 750 µM (inactive)
same,GI50,HT-29,618 µM (inactive)
same,GI50,IGROV-1,618 µM (inactive)
same,GI50,SNB-75,484 µM (inactive)
same,GI50,SF-268,608 µM (inactive)
same,GI50,OVCAR-4,590 µM (inactive)
same,GI50,HOP-62,568 µM (inactive)
same,GI50,SK-MEL-28,611 µM (inactive)
same,GI50,EKVX,643 µM (inactive)
same,GI50,BT-549,> 750 µM (inactive)
same,GI50,NCI-H23,614 µM (inactive)
same,GI50,Malme-3M,600 µM (inactive)
same,GI50,SF-539,612 µM (inactive)
same,GI50,U-251,593 µM (inactive)
same,GI50,M14,> 750 µM (inactive)
same,GI50,DU-145,> 750 µM (inactive)
same,GI50,NCI-H226,596 µM (inactive)
same,GI50,HCC 2998,533 µM (inactive)
same,GI50,SNB-78,545 µM (inactive)
same,GI50,SK-MEL-2,647 µM (inactive)
same,GI50,DLD-1,632 µM (inactive)
same,GI50,MCF7,518 µM (inactive)
same,GI50,ACHN,> 750 µM (inactive)
same,GI50,RPMI-8226,565 µM (inactive)
same,GI50,HCT-15,622 µM
same,GI50,A498,593 µM (inactive)
same,GI50,SNB-19,565 µM (inactive)
same,GI50,DMS-114,504 µM (inactive)
same,GI50,SK-MEL-5,413 µM (inactive)
same,GI50,LXFL 529,> 750 µM (inactive)
same,GI50,PC-3,> 750 µM (inactive)
same,GI50,HCT-116,573 µM (inactive)
same,GI50,MDA-N,> 750 µM (inactive)
same,GI50,HL-60,499 µM (inactive)
same,GI50,CCRF-CEM,485 µM (inactive)
same,GI50,HOP-18,222 µM (inactive)
same,GI50,K562,498 µM (inactive)
same,GI50,OVCAR-8,617 µM (inactive)
same,GI50,DMS-273,528 µM (inactive)
same,GI50,OVCAR-5,647 µM (inactive)
same,GI50,TK-10,> 750 µM (inactive)
same,GI50,MOLT-4,558 µM (inactive)
